Values quoted from earlier work in patent US20060251720A1, “Localized controlled absorption of statins in the gastrointestinal tract for achieving high blood levels of statins” (priority 2004, published 2006).

Legend:
HMG-CoA reductase = target: T1, HMG-CoA reductase (Homo sapiens, UniProt P04035); details: relative to the beta-hydroxy acid form taken as the drug
T1 sequence (P04035 1-888): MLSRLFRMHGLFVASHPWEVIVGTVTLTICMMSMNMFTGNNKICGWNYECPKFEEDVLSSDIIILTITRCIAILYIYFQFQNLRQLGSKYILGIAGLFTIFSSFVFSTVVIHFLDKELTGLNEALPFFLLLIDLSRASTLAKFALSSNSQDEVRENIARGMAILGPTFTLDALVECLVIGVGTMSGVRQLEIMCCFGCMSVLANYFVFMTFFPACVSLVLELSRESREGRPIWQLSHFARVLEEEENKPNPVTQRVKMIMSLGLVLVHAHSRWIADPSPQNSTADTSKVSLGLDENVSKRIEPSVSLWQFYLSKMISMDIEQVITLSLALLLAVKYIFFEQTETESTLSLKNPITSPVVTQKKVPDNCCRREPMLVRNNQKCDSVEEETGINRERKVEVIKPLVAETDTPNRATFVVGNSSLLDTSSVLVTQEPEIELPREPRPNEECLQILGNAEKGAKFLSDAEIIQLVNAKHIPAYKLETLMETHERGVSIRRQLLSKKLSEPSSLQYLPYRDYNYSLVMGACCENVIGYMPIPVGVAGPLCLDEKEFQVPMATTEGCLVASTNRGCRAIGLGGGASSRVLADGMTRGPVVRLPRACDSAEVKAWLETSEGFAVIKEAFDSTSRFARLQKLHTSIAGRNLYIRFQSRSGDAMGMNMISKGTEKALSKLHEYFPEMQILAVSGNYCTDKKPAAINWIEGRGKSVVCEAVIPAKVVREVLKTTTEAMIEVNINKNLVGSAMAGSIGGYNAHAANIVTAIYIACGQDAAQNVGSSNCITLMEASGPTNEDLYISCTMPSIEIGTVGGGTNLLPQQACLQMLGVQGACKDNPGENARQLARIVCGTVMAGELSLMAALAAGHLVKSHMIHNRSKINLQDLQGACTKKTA

[1] = test system: plasma proteins, primarily albumin

Structure (SMILES)	HMG-CoA reductase activity retained (HMG-CoA reductase)	bound to plasma proteins, primarily to albumin [1]
CCC(C)(C)C(=O)OC1CC(C)(O)C=C2C=CC(C)C(CCC3CC(O)CC(=O)O3)C21 (stereo not drawn) [6-beta-hydroxy simvastatin]	~50%	–
CCC(C)(C)C(=O)O[C@H]1C[C@@H](CO)C=C2C=C[C@H](C)[C@H](CC[C@@H]3C[C@@H](O)CC(=O)O3)[C@H]21 [6-beta-hydroxymethyl simvastatin]	approximately 40%	–
CCC(C)(C)C(=O)O[C@H]1C[C@@H](C)C=C2C=C[C@H](C)[C@H](CC[C@@H]3C[C@@H](O)CC(=O)O3)[C@H]21 [simvastatin]	–	more than 95%
